Here are results for 29 compounds from article PMC8286840, “Identifying SARS-CoV-2 antiviral compounds by screening for small molecule inhibitors of Nsp3 papain-like protease” (Biochemical Journal, 2021).

Assay [1] has as its target T1, SARS-CoV-2 PLpro (nsp3 1564–1878) (Severe acute respiratory syndrome coronavirus 2, UniProt P0DTD1). Nature of the assay: biochemical. Conditions: high concentration screen, read-out: % of control remaining. Details: FRET-quenched peptide (Pro3) cleavage by PLpro, 10 min pre-incubation, slope over 20 min, normalised to no-compound control.
The target in assay [2] is T1, SARS-CoV-2 PLpro (nsp3 1564–1878). Nature of the assay: biochemical. On the set-up: FRET-quenched peptide (Pro3) cleavage by PLpro, 10 min pre-incubation, slope over 20 min, normalised to no-compound control. Conditions: low concentration screen, read-out: % of control remaining.

Where a name gives a salt, the structure may show the parent alone. Read-outs that look alike come from different tables or passages of the source.

With `O=c1c(-n2ccnn2)c[nH]n1-c1cc(N2CCOCC2)ncn1` [Molidustat (BAY 85-3934)], the remaining activity at 3.75 µM in assay [1] (Well no.=8542) came out at 111%. Also, in assay [2] (Well no.=8542), the remaining activity at 1.25 µM came to 101%.

For the compound `CCc1c(C)[nH]c2c1C(=O)C(CN1CCOCC1)CC2` (stereo not drawn) [Molindone (hydrochloride)], the values for the remaining activity at 3.75 µM in assay [1] (Well no.=6905) and in assay [1] (Well no.=7928) were 93.3% and 98.2%, respectively. Besides, the remaining activity at 1.25 µM turned out to be 98.8% in assay [2] (Well no.=6905) and 95.5% in assay [2] (Well no.=7928).

Consider `CCOC(=O)[N-]c1c[n+](N2CCOCC2)no1` [Molsidomine], for which the remaining activity at 3.75 µM came out at 104% in assay [1] (Well no.=780) and 96.1% in assay [1] (Well no.=1803). The remaining activity at 1.25 µM in assay [2] (Well no.=780) amounted to 110%; in assay [2] (Well no.=1803) it was 97.9%.

Regarding `C[C@@H]1C[C@H]2[C@@H]3CCC4=CC(=O)C=C[C@]4(C)[C@@]3(Cl)[C@@H](O)C[C@]2(C)[C@@]1(OC(=O)c1ccco1)C(=O)CCl` [Mometasone furoate], the remaining activity at 3.75 µM in assay [1] (Well no.=4668) was 103%; in assay [1] (Well no.=6700), 89.6%. The remaining activity at 1.25 µM in assay [2] (Well no.=4668) is 103%; in assay [2] (Well no.=6700), 92.3%.

For `CCOC(=O)C1=C(C)NC(=S)NC1c1cccc(O)c1` (stereo not drawn) [Monastrol], in assay [1] (Well no.=891), the remaining activity at 3.75 µM stood at 106%. Besides, the remaining activity at 1.25 µM in assay [2] (Well no.=891) worked out at 106%.

As for `CC[C@@]1([C@@H]2O[C@@H]([C@H]3O[C@@](O)(CO)[C@H](C)C[C@@H]3C)C[C@@H]2C)CC[C@H]([C@]2(C)CC[C@]3(C[C@H](O)[C@@H](C)[C@@H]([C@@H](C)[C@@H](OC)[C@H](C)C(=O)O)O3)O2)O1` [Monensin], the remaining activity at 3.75 µM in assay [1] (Well no.=3413) was 99.5%. In addition, the remaining activity at 1.25 µM in assay [2] (Well no.=3413) came to 94.8%.

As for `C[C@H]1C(=O)O[C@@H]2CCN3CC=C(COC(=O)[C@](C)(O)[C@]1(C)O)[C@H]23` [Monocrotaline], in assay [1] (Well no.=3777), the remaining activity at 3.75 µM worked out at 103%. The remaining activity at 1.25 µM in assay [2] (Well no.=3777) worked out at 102%.

`CC(C)(O)c1ccccc1CC[C@@H](SCC1(CC(=O)O)CC1)c1cccc(/C=C/c2ccc3ccc(Cl)cc3n2)c1` [Montelukast (sodium)]: in assay [1] (Well no.=6325), the remaining activity at 3.75 µM was determined as 98%. The remaining activity at 1.25 µM in assay [2] (Well no.=6325) was found to be 105%.

Take `O=c1c(O)c(-c2ccc(O)cc2O)oc2cc(O)cc(O)c12` [Morin hydrate]: the remaining activity at 3.75 µM in assay [1] (Well no.=5680) stood at 99.5%. Further, in assay [2] (Well no.=5680), the remaining activity at 1.25 µM is 99.9%.

Take `O=c1c(O)c(-c2ccc(O)cc2O)oc2cc(O)cc(O)c12` [Morin]: in assay [1] (Well no.=1022), the remaining activity at 3.75 µM came to 93.4%. In addition, in assay [2] (Well no.=1022), the remaining activity at 1.25 µM was 96.8%.

Take `N=C(N=C(N)N)N1CCOCC1` [Moroxydine.HCl]: in assay [1] (Well no.=1539), the remaining activity at 3.75 µM is 105%. The remaining activity at 1.25 µM in assay [2] (Well no.=1539) was found to be 104%.

With `CCOc1cc(N)c(Cl)cc1C(=O)NCC1CN(Cc2ccc(F)cc2)CCO1` (stereo not drawn) [Mosapride (citrate)], the remaining activity at 3.75 µM in assay [1] (Well no.=6657) was 109%. For the same compound, in assay [2] (Well no.=6657), the remaining activity at 1.25 µM came out at 104%.

Take `CCOc1cc(N)c(Cl)cc1C(=O)NCC1CN(Cc2ccc(F)cc2)CCO1` (stereo not drawn) [Mosapride citrate]: the remaining activity at 3.75 µM in assay [1] (Well no.=4807) stood at 103%. In assay [2] (Well no.=4807), the remaining activity at 1.25 µM worked out at 101%.

In the case of `CC1(C)CNc2cc(NC(=O)c3cccnc3NCc3ccncc3)ccc21` [Motesanib Diphosphate (AMG-706)], in assay [1] (Well no.=4611), the remaining activity at 3.75 µM was 100%. For the same compound, in assay [2] (Well no.=4611), the remaining activity at 1.25 µM amounted to 101%.

`CC1(C)CNc2cc(NC(=O)c3cccnc3NCc3ccncc3)ccc21` [Motesanib]: the remaining activity at 3.75 µM in assay [1] (Well no.=2697) stood at 103%. In assay [2] (Well no.=2697), the remaining activity at 1.25 µM was determined as 104%.

Take `CCCN(CCC)C(=O)C1=Cc2ccc(-c3ccc(C(=O)N4CCCC4)cc3)cc2N=C(N)C1` [Motolimod]: in assay [1] (Well no.=8413), the remaining activity at 3.75 µM stood at 99%. Moreover, the remaining activity at 1.25 µM in assay [2] (Well no.=8413) turned out to be 103%.

As to `COc1c(N2C[C@@H]3CCCN[C@@H]3C2)c(F)cc2c(=O)c(C(=O)O)cn(C3CC3)c12` [Moxifloxacin HCl], the remaining activity at 3.75 µM in assay [1] (Well no.=4878) was found to be 93.6%. Further, the remaining activity at 1.25 µM in assay [2] (Well no.=4878) was 98.1%.

In the case of `COc1c(N2C[C@@H]3CCCN[C@@H]3C2)c(F)cc2c(=O)c(C(=O)O)cn(C3CC3)c12` [Moxifloxacin.HCl], the remaining activity at 3.75 µM in assay [1] (Well no.=1568) is 96.5%. In assay [2] (Well no.=1568), the remaining activity at 1.25 µM came to 97.8%.

For the compound `CC(=O)Oc1cc(C(C)C)c(OCCN(C)C)cc1C` [Moxisylyte (hydrochloride)], the remaining activity at 3.75 µM in assay [1] (Well no.=7424) is 97.7%. The remaining activity at 1.25 µM in assay [2] (Well no.=7424) came out at 94%.

Consider `CC(=O)Oc1cc(C(C)C)c(OCCN(C)C)cc1C` [Moxisylyte hydrochloride], for which, in assay [1] (Well no.=976), the remaining activity at 3.75 µM came to 101%. Moreover, the remaining activity at 1.25 µM in assay [2] (Well no.=976) came to 103%.

As for `COc1nc(C)nc(Cl)c1NC1=NCCN1` [Moxonidine hydrochloride], in assay [1] (Well no.=920), the remaining activity at 3.75 µM amounted to 102%. In addition, in assay [2] (Well no.=920), the remaining activity at 1.25 µM is 100%.

Take `COc1nc(C)nc(Cl)c1NC1=NCCN1` [Moxonidine]: in assay [1] (Well no.=4724), the remaining activity at 3.75 µM came to 92.3%. Further, the remaining activity at 1.25 µM in assay [2] (Well no.=4724) stood at 98.7%; in assay [2] (Well no.=7423) it was 106%.

Regarding `Cc1ccccc1C(=O)Nc1ccc(C(=O)N2CCCC(N(C)C)c3ccccc32)cc1` (stereo not drawn) [Mozavaptan], the remaining activity at 3.75 µM was found to be 101% in assay [1] (Well no.=4936) and 96.3% in assay [1] (Well no.=6515). The remaining activity at 1.25 µM in assay [2] (Well no.=4936) was 101%; in assay [2] (Well no.=6515), 93.2%.

Consider `OC[C@H]1O[C@@H](Oc2cc(O)cc(/C=C/c3ccc(O[C@@H]4O[C@H](CO)[C@@H](O)[C@H](O)[C@H]4O)cc3O)c2)[C@H](O)[C@@H](O)[C@@H]1O` [Mulberroside A], for which the remaining activity at 3.75 µM in assay [1] (Well no.=6340) stood at 90.9%. Also, the remaining activity at 1.25 µM in assay [2] (Well no.=6340) was 93%.

As to `NCc1cc(O)no1` [Muscimol hydrobromide], the remaining activity at 3.75 µM in assay [1] (Well no.=556) was 94.1%. In assay [2] (Well no.=556), the remaining activity at 1.25 µM is 95.9%.

Take `CCCCC(C#N)(Cn1cncn1)c1ccc(Cl)cc1` (stereo not drawn) [Myclobutanil]: the remaining activity at 3.75 µM in assay [1] (Well no.=2001) was 102%. Also, in assay [2] (Well no.=2001), the remaining activity at 1.25 µM is 105%.

For the compound `COc1c(C)c2c(c(O)c1C/C=C(\C)CCC(=O)OCCN1CCOCC1)C(=O)OC2` [Mycophenolate mofetil], in assay [1] (Well no.=1923), the remaining activity at 3.75 µM came out at 103%. The remaining activity at 1.25 µM in assay [2] (Well no.=1923) was 103%.

For the compound `COc1c(C)c2c(c(O)c1C/C=C(\C)CCC(=O)O)C(=O)OC2` [Mycophenolic Acid], the remaining activity at 3.75 µM in assay [1] (Well no.=1553) amounted to 99.9%; in assay [1] (Well no.=3415), 98.7%. Besides, the remaining activity at 1.25 µM in assay [2] (Well no.=1553) came to 100%; in assay [2] (Well no.=3415) it was 96.4%.

As to `CCOC(=O)c1cnn(-c2ccccc2)c1NC(=O)c1cc2nc(-c3ccco3)cc(C(F)(F)Cl)n2n1` [Mycro 3], in assay [1] (Well no.=7158), the remaining activity at 3.75 µM turned out to be 94.4%. For the same compound, the remaining activity at 1.25 µM in assay [2] (Well no.=7158) amounted to 96%.
